Results taken from PubChem BioAssay AID1963959 (Molecular Pharmacology Branch, DTP, NCI, 2024).

Test system: T-47D spheroids with HUVEC/MSC, viability
Test: Anticancer human tumor T-47D cell line growth inhibition [PI3K];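 also: spheroids exposed to agents for seven days before reading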;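 as to viability, T/C: percent of DMSO vehicle control luminescence so 100% = untreated growth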
Settings: for viability, T/C: stronger effect = lower value
How it was run: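 Three cell types, namely tumor cells, endothelial cells and mesenchymal stem cells, formed each spheroid. Combinations with four PI3K inhibitors were screened at clinically achievable concentrations decreasing by half-log, and spheroid viability was recorded.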

C#Cc1c(F)ccc2cc(O)cc(-c3ncc4c(N5CC6CCC(C5)N6)nc(OCC56CCCN5CC(F)C6)nc4c3F)c12 (stereo unspecified)
viability, T/C (compound 0.1 µM): 99.3% [middle of 4 runs] | viability, T/C (compound 3.16 µM): 98.4% [middle of 4 runs] | viability, T/C (compound 10 µM): 96.3% [middle of 4 runs] | IC50 (curve of compound): > 10 µM

Cn1nccc1Nc1nccc(-c2ccn(C(CO)c3ccc(Cl)c(F)c3)c(=O)c2)n1 (stereo unspecified) + Cc1nc(NC(=O)N2CCCC2C(N)=O)sc1-c1ccnc(C(C)(C)C(F)(F)F)c1
IC50 (curve of first compound, second compound 0.0316 µM): > 10 µM | IC50 (curve of first compound, second compound 0.1 µM): > 10 µM | IC50 (curve of first compound, second compound 0.316 µM): > 10 µM | IC50 (curve of first compound, second compound 1 µM): > 10 µM | IC50 (curve of first compound, second compound 3.16 µM): > 10 µM | IC50 (curve of first compound, second compound 10 µM): < 0.0316 µM | viability, T/C (second compound 0.0316 µM, first compound 0.0316 µM): 99.1% | viability, T/C (second compound 0.0316 µM, first compound 0.1 µM): 81.6% | viability, T/C (second compound 0.0316 µM, first compound 0.316 µM): 92.6% | viability, T/C (second compound 0.0316 µM, first compound 1 µM): 102% | viability, T/C (second compound 0.0316 µM, first compound 3.16 µM): 103% | viability, T/C (second compound 0.0316 µM, first compound 10 µM): 96.3% | viability, T/C (second compound 0.1 µM, first compound 0.0316 µM): 111% | viability, T/C (second compound 0.1 µM, first compound 0.1 µM): 95.2% | viability, T/C (second compound 0.1 µM, first compound 0.316 µM): 98.8% | viability, T/C (second compound 0.1 µM, first compound 1 µM): 89.4% | viability, T/C (second compound 0.1 µM, first compound 3.16 µM): 117% | viability, T/C (second compound 0.1 µM, first compound 10 µM): 85.7% | viability, T/C (second compound 0.316 µM, first compound 0.0316 µM): 86.8% | viability, T/C (second compound 0.316 µM, first compound 0.1 µM): 93.3% | viability, T/C (second compound 0.316 µM, first compound 0.316 µM): 97.6% | viability, T/C (second compound 0.316 µM, first compound 1 µM): 101% | viability, T/C (second compound 0.316 µM, first compound 3.16 µM): 104% | viability, T/C (second compound 0.316 µM, first compound 10 µM): 92.4% | viability, T/C (second compound 1 µM, first compound 0.0316 µM): 85.4% | viability, T/C (second compound 1 µM, first compound 0.1 µM): 92.7% | viability, T/C (second compound 1 µM, first compound 0.316 µM): 86.6% | viability, T/C (second compound 1 µM, first compound 1 µM): 88% | viability, T/C (second compound 1 µM, first compound 3.16 µM): 110% | viability, T/C (second compound 1 µM, first compound 10 µM): 82% | viability, T/C (second compound 3.16 µM, first compound 0.0316 µM): 65.9% | viability, T/C (second compound 3.16 µM, first compound 0.1 µM): 70.8% | viability, T/C (second compound 3.16 µM, first compound 0.316 µM): 73.5% | viability, T/C (second compound 3.16 µM, first compound 1 µM): 83.3% | viability, T/C (second compound 3.16 µM, first compound 3.16 µM): 76.9% | viability, T/C (second compound 3.16 µM, first compound 10 µM): 70.8% | viability, T/C (second compound 10 µM, first compound 0.0316 µM): 39.5% | viability, T/C (second compound 10 µM, first compound 0.1 µM): 39.9% | viability, T/C (second compound 10 µM, first compound 0.316 µM): 41.7% | viability, T/C (second compound 10 µM, first compound 1 µM): 42.9% | viability, T/C (second compound 10 µM, first compound 3.16 µM): 46.4% | viability, T/C (second compound 10 µM, first compound 10 µM): 48.7%
